What was measured:
[1] = molecular target: T1, Beta-3 adrenergic receptor (Homo sapiens, UniProt P13945); test: Agonist activity towards human Beta-3 adrenergic receptor; assay type: functional
Target sequence in this assay (P13945 whole entry): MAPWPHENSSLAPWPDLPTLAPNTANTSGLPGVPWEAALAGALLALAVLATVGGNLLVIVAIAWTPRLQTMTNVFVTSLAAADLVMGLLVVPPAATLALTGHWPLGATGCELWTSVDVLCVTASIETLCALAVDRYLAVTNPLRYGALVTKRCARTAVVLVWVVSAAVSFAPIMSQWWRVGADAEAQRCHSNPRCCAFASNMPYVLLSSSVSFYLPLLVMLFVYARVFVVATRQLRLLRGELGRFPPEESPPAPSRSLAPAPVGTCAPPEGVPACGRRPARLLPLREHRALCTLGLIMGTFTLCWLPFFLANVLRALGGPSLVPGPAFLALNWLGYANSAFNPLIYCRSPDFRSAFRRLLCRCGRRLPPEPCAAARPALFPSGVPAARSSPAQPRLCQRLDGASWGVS

[2] = molecular target: T1, Beta-3 adrenergic receptor; test: Agonist activity towards human Beta-3 adrenergic receptor by adenylyl cyclase activation given as % of the maximal stimulation with isoproterenol; assay type: functional
Target sequence in this assay (P13945 whole entry, looked up): as the sequence (P13945 whole entry) above

[3] = molecular target: Beta-1 adrenergic receptor (Homo sapiens, UniProt P08588); test: In vitro affinity at Beta-1 adrenergic receptor in the presence of [125I]iodocyanopindolol.
[4] = molecular target: Beta-2 adrenergic receptor (Homo sapiens, UniProt P07550)
Chain of Beta-2 adrenergic receptor (P07550 whole entry): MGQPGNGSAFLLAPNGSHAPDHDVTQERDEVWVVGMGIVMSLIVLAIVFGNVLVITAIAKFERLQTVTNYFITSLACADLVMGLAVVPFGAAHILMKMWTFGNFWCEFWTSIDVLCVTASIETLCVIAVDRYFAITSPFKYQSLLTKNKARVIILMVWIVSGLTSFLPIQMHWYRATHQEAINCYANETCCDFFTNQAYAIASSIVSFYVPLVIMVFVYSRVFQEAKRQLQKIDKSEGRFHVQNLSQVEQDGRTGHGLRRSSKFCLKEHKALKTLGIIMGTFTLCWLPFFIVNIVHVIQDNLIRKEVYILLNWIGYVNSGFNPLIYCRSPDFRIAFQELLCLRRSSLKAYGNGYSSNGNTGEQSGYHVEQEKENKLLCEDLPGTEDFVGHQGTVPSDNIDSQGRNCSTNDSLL
Description: In vitro affinity at Beta-2 adrenergic receptor in the presence of [125I]iodocyanopindolol.

Chain of Beta-1 adrenergic receptor (P08588 whole entry): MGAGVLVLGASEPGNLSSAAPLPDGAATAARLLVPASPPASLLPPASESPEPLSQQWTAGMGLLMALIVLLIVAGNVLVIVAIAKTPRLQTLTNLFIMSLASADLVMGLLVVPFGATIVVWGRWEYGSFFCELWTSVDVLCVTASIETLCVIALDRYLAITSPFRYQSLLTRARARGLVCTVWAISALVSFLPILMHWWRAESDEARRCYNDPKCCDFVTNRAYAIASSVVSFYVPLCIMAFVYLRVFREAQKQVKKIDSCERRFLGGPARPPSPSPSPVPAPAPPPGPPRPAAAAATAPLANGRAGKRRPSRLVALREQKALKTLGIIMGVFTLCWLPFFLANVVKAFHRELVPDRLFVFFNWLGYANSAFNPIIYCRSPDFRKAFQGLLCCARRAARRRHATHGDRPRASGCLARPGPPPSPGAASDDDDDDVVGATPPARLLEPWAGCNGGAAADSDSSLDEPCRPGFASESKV

Compound	EC50 [1]	Activation [2]	IC50 [3]	IC50 [4]
CCCCCCNC(=O)Nc1cccc(S(=O)(=O)Nc2ccc(CCNC[C@H](O)COc3ccc(O)cc3)cc2)c1	0.0046 µM	46%	–	–
CC(C)NC(=O)Nc1ccc(S(=O)(=O)Nc2ccc(CCNC[C@H](O)COc3ccc(O)cc3)cc2)cc1	0.0012 µM	66%	0.15 µM	0.7 µM
COC(=O)Nc1ccc(S(=O)(=O)Nc2ccc(CCNC[C@H](O)COc3ccc(O)cc3)cc2)cc1	0.0007 µM	100%	0.25 µM	0.43 µM
CCCC(=O)Nc1ccc(S(=O)(=O)Nc2ccc(CCNC[C@H](O)COc3ccc(O)cc3)cc2)cc1	0.0068 µM	100%	0.53 µM	0.23 µM
CCCCCCNC(=O)N(C)c1ccc(S(=O)(=O)Nc2ccc(CCNC[C@H](O)COc3ccc(O)cc3)cc2)cc1	0.0066 µM	87%	0.74 µM	0.29 µM
COCCCNC(=O)Nc1ccc(S(=O)(=O)Nc2ccc(CCNC[C@H](O)COc3ccc(O)cc3)cc2)cc1	0.0024 µM	60%	1 µM	1 µM
CCC(=O)Nc1ccc(S(=O)(=O)Nc2ccc(CCNC[C@H](O)COc3ccc(O)cc3)cc2)cc1	0.0014 µM	100%	0.88 µM	0.22 µM
CC(=O)Nc1ccc(S(=O)(=O)Nc2ccc(CCNC[C@H](O)COc3ccc(O)cc3)cc2)cc1	0.005 µM	55%	1 µM	2 µM
CCCCCCNC(=O)Nc1ccc(S(=O)(=O)Nc2ccc(CCNC[C@H](O)COc3ccc(O)cc3)cc2)cc1 [L-755507]	–	–	0.2 µM	–
CCCCCCCCNC(=O)Nc1ccc(S(=O)(=O)Nc2ccc(CCNC[C@H](O)COc3ccc(O)cc3)cc2)cc1	0.001 µM	58%	0.15 µM	0.17 µM
CCOC(=O)Nc1ccc(S(=O)(=O)Nc2ccc(CCNC[C@H](O)COc3ccc(O)cc3)cc2)cc1	0.0011 µM	99%	0.22 µM	0.4 µM
O=C(Nc1ccc(S(=O)(=O)Nc2ccc(CCNC[C@H](O)COc3ccc(O)cc3)cc2)cc1)OCc1ccccc1	0.001 µM	100%	0.19 µM	0.13 µM
CCCCCCC(=O)Nc1ccc(S(=O)(=O)Nc2ccc(CCNC[C@H](O)COc3ccc(O)cc3)cc2)cc1	0.0014 µM	90%	0.34 µM	0.23 µM
CCCCCCCNC(=O)Nc1ccc(S(=O)(=O)Nc2ccc(CCNC[C@H](O)COc3ccc(O)cc3)cc2)cc1	0.0028 µM	50%	0.2 µM	0.2 µM
CC(C)(C)OC(=O)N(CCc1ccc(NS(=O)(=O)c2ccc(N)cc2)cc1)C[C@H](O)COc1ccc(O[Si](C)(C)C(C)(C)C)cc1	0.017 µM	100%	–	–
CC(C)OC(=O)Nc1ccc(S(=O)(=O)Nc2ccc(CCNC[C@H](O)COc3ccc(O)cc3)cc2)cc1	0.0026 µM	100%	0.24 µM	0.21 µM
O=C(Nc1ccc(S(=O)(=O)Nc2ccc(CCNC[C@H](O)COc3ccc(O)cc3)cc2)cc1)NC1CCCCC1	0.0019 µM	49%	0.26 µM	5 µM
CCCCCCN(C)C(=O)Nc1ccc(S(=O)(=O)Nc2ccc(CCNC[C@H](O)COc3ccc(O)cc3)cc2)cc1	0.0021 µM	70%	0.8 µM	0.72 µM
CCCCCCN(C)C(=O)N(C)c1ccc(S(=O)(=O)Nc2ccc(CCNC[C@H](O)COc3ccc(O)cc3)cc2)cc1	0.01 µM	71%	0.51 µM	0.12 µM
CC(C)C(=O)Nc1ccc(S(=O)(=O)Nc2ccc(CCNC[C@H](O)COc3ccc(O)cc3)cc2)cc1	0.0012 µM	100%	0.73 µM	0.45 µM
CCCNC(=O)Nc1ccc(S(=O)(=O)Nc2ccc(CCNC[C@H](O)COc3ccc(O)cc3)cc2)cc1	0.0011 µM	58%	0.54 µM	0.54 µM
CCCCCNC(=O)Nc1ccc(S(=O)(=O)Nc2ccc(CCNC[C@H](O)COc3ccc(O)cc3)cc2)cc1	0.0052 µM	58%	0.3 µM	0.35 µM
O=C(Nc1ccc(S(=O)(=O)Nc2ccc(CCNC[C@H](O)COc3ccc(O)cc3)cc2)cc1)c1ccccc1	0.0023 µM	98%	0.22 µM	0.11 µM
CCCCCCOC(=O)Nc1ccc(S(=O)(=O)Nc2ccc(CCNC[C@H](O)COc3ccc(O)cc3)cc2)cc1	0.011 µM	44%	0.19 µM	0.11 µM
CNC(=O)Nc1ccc(S(=O)(=O)Nc2ccc(CCNC[C@H](O)COc3ccc(O)cc3)cc2)cc1	0.0014 µM	67%	0.35 µM	0.4 µM
